Measurements reported in patent publication US10647713B2 (Nimbus Lakshmi, Inc., priority 2016, dated 2020).

Target: human TYK2 (JH2domain-pseudokinase) (Homo sapiens (Human), UniProt P29597)
Test: TYK2 JH2 Domain Binding Assay (KINOMEscan, DiscoveRx)
Conditions: 11-point dilution, duplicate
Description: Binding constants for compounds of the present invention against the JH2 domain were determined by the following protocol for a KINOMEscan® assay (DiscoveRx). A fusion protein of a partial length construct of human TYK2 (JH2domain-pseudokinase) (amino acids G556 to D888 based on reference sequence NP_003322.3) and the DNA binding domain of NFkB was expressed in transiently transfected HEK293 cells. From these HEK 293 cells, extracts were prepared in M-PER extraction buffer (Pierce) in the presence of Protease Inhibitor Cocktail Complete (Roche) and Phosphatase Inhibitor Cocktail Set II (Merck) per manufacturers' instructions. The TYK2 (JH2domain-pseudokinase) fusion protein was labeled with a chimeric double-stranded DNA tag containing the NFkB binding site (5′-GGGAATTCCC-3′) fused to an amplicon for qPCR readout, which was added directly to the expression extract (the final concentration of DNA-tag in the binding reaction is 0.1 nM).
Streptavidin-coated magnetic beads (Dynal M280) were treated with a biotinylated small molecule ligand for 30 minutes at room temperature to generate affinity resins the binding assays. The liganded beads were blocked with excess biotin and washed with blocking buffer (SeaBlock (Pierce), 1% BSA, 0.05% Tween 20, 1 mM DTT) to remove unbound ligand and to reduce nonspecific binding.
The binding reaction was assembled by combining 16 μl of DNA-tagged kinase extract, 3.8 μl liganded affinity beads, and 0.18 μl test compound (PBS/0.05% Tween 20/10 mM DTT/0.1% BSA/2 μg/ml sonicated salmon sperm DNA)]. Extracts were used directly in binding assays without any enzyme purification steps at a ≥10,000-fold overall stock dilution (final DNA-tagged enzyme concentration <0.1 nM). Extracts were loaded with DNA-tag and diluted into the binding reaction in a two step process. First extracts were diluted 1:100 in 1× binding buffer (PBS/0.05% Tween 20/10 mM DTT/0.1% BSA/2 μg/ml sonicated salmon sperm DNA) containing 10 nM DNA-tag. This dilution was allowed to equilibrate at room temperature for 15 minutes and then subsequently diluted 1:100 in 1× binding buffer. Test compounds were prepared as 111× stocks in 100% DMSO. Kds were determined using an 11-point 3-fold compound dilution series with three DMSO control points. All compounds for Kd measurements are distributed by acoustic transfer (non-contact dispensing) in 100% DMSO. The compounds were then diluted directly into the assays such that the final concentration of DMSO was 0.9%. All reactions performed in polypropylene 384-well plates. Each was a final volume of 0.02 mL. Assays were incubated with shaking for 1 hour at room temperature. Then the beads were pelleted and washed with wash buffer (1×PBS, 0.05% Tween 20) to remove displaced kinase and test compound. The washed based were re-suspended in elution buffer (1×PBS, 0.05% Tween 20, 0.5 μM non-biotinylated affinity ligand) and incubated at room temperature with shaking for 30 minutes. The kinase concentration in the eluates was measured by qPCR. qPCR reactions were assembled by adding 2.5 μL of kinase eluate to 7.5 μL of qPCR master mix containing 0.15 μM amplicon primers and 0.15 μM amplicon probe. The qPCR protocol consisted of a 10 minute hot start at 95° C., followed by 35 cycles of 95° C. for 15 seconds, 60° C. for 1 minute.
Test compounds were prepared as 111× stocks in 100% DMSO. Kds were determined using an 11-point 3-fold compound dilution series with three DMSO control points. All compounds for Kd measurements are distributed by acoustic transfer (non-contact dispensing) in 100% DMSO. The compounds were then diluted directly into the assays such that the final concentration of DMSO was 0.9%. The Kds were determined using a compound top concentration of 30,000 nM. Kd measurements were performed in duplicate.
Binding constants (Kds) were calculated with a standard dose-response curve using the Hill equation: […]
The Hill Slope was set to −1. […]

Sequence of human TYK2 (JH2domain-pseudokinase) (P29597 556-888): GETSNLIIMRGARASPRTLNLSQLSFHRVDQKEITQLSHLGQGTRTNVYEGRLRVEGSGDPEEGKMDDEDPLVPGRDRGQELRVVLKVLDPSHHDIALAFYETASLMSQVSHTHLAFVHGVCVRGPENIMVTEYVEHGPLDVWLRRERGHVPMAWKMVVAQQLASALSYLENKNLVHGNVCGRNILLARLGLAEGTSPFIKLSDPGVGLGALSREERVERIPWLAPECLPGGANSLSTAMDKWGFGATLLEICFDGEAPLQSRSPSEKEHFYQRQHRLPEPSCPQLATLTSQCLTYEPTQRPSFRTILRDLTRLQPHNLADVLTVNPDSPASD

| Kd [nM] | Structure (SMILES) |
| --- | --- |
| 0.1 to 0.5 | COc1c(Nc2cc(NC(=O)C3CC3)nc3[nH]c(C(F)F)nc23)cccc1-c1nnn(C)n1 [I-14, N-(2-(difluoromethyl)-7-((2-methoxy-3-(2-methyl-2H-tetrazol-5-yl)phenyl)amino)-3H-imidazo[4,5-b]pyridin-5-yl)cyclopropanecarboxamide] |
| 1 to 10 | COc1cc(C(=O)N2CCOCC2)ccc1Nc1cc(NC(=O)C2CC2)nc2[nH]c(C(F)F)nc12 [I-15, N-(2-(difluoromethyl)-7-((2-methoxy-4-(morpholine-4-carbonyl)phenyl)amino)-3H-imidazo[4,5-b]pyridin-5-yl)cyclopropanecarboxamide] |
| 0.5 to 1 | COc1cc(C(=O)N2CCC2)ccc1Nc1cc(NC(=O)C2CC2)nc2[nH]c(C(F)F)nc12 [I-16, N-(7-((4-(azetidine-1-carbonyl)-2-methoxyphenyl)amino)-2-(difluoromethyl)-3H-imidazo[4,5-b]pyridin-5-yl)cyclopropanecarboxamide] |
| 0.1 to 0.5 | COc1c(Nc2cc(Nc3cccc(C#N)n3)nc3[nH]c(C(F)F)nc23)cccc1-c1nnn(C)n1 [I-17, 6-((2-(difluoromethyl)-7-((2-methoxy-3-(2-methyl-2H-tetrazol-5-yl)phenyl)amino)-3H-imidazo[4,5-b]pyridin-5-yl)amino)picolinonitrile] |
| 1 to 10 | COc1c(Nc2cc(Nc3ccc(N4CCC4)cn3)nc3[nH]c(C(F)F)nc23)cccc1-c1nnn(C)n1 [I-22, N5-(5-(azetidin-1-yl)pyridin-2-yl)-2-(difluoromethyl)-N7-(2-methoxy-3-(2-methyl-2H-tetrazol-5-yl)phenyl)-3H-imidazo[4,5-b]pyridine-5,7-diamine] |
| 1 to 10 | COc1c(Nc2cc(Nc3ccc(N4CC(O)C4)cn3)nc3[nH]c(C(F)F)nc23)cccc1-c1nnn(C)n1 [I-23, I-(6-((2-(difluoromethyl)-7-((2-methoxy-3-(2-methyl-2H-tetrazol-5-yl)phenyl)amino)-3H-imidazo[4,5-b]pyridin-5-yl)amino)pyridin-3-yl)azetidin-3-ol] |
| 0.1 to 0.5 | COc1c(Nc2cc(Nc3cccc(C#N)n3)nc3[nH]c(C(F)F)nc23)cccc1-c1ccn(C)n1 [I-25, 6-((2-(difluoromethyl)-7-((2-methoxy-3-(1-methyl-1H-pyrazol-3-yl)phenyl)amino)-3H-imidazo[4,5-b]pyridin-5-yl)amino)picolinonitrile] |
| 1 to 10 | COc1c(Nc2cc(Nc3cncc(C#N)n3)nc3[nH]c(C(F)F)nc23)cccc1-c1ccn(C)n1 [I-27, 6-((2-(difluoromethyl)-7-((2-methoxy-3-(1-methyl-1H-pyrazol-3-yl)phenyl)amino)-3H-imidazo[4,5-b]pyridin-5-yl)amino)pyrazine-2-carbonitrile] |

Second part, the compound before the results:

| Structure (SMILES) | Kd [nM] |
| --- | --- |
| COc1cc(N2CCCC2=O)ccc1Nc1cc(NC(=O)C2CC2)nc2[nH]c(C(F)F)nc12 [I-18] | 1 to 10 |
| COc1c(Cl)cccc1Nc1cc(NC(=O)C2CC2)nc2[nH]c(C(F)F)nc12 [I-19, N-(7-((3-chloro-2-methoxyphenyl)amino)-2-(difluoromethyl)-3H-imidazo[4,5-b]pyridin-5-yl)cyclopropanecarboxamide] | > 10 |
| COc1c(F)cccc1Nc1cc(NC(=O)C2CC2)nc2[nH]c(C(F)F)nc12 [I-20, N-(2-(difluoromethyl)-7-((3-fluoro-2-methoxyphenyl)amino)-3H-imidazo[4,5-b]pyridin-5-yl)cyclopropanecarboxamide] | > 10 |
| COc1c(Nc2cc(Nc3cnc(C)c(C)n3)nc3[nH]c(C(F)F)nc23)cccc1-c1nnn(C)n1 [I-21, 2-(difluoromethyl)-N5-(5,6-dimethylpyrazin-2-yl)-N7-(2-methoxy-3-(2-methyl-2H-tetrazol-5-yl)phenyl)-3H-imidazo[4,5-b]pyridine-5,7-diamine] | 0.5 to 1 |
| COc1c(Nc2cc(Nc3ccc(C)nn3)nc3[nH]c(C(F)F)nc23)cccc1-c1ccn(C)n1 [I-26, 2-(difluoromethyl)-N7-(2-methoxy-3-(1-methyl-1H-pyrazol-3-yl)phenyl)-N5-(6-methylpyridazin-3-yl)-3H-imidazo[4,5-b]pyridine-5,7-diamine] | 0.1 to 0.5 |
